Like-named read-outs stand apart in the source and are kept apart here.
Tested on: T1, Wld^S
T1 construct: gene Nmnat1; full-length Wld^S ORF (1119 bp): N-terminal Ube4b fragment fused to NMNAT1; predicted mass 44001 Da; with Ubiquitin conjugation factor E4 B
Test: C18-HPLC of NAD formed, nonlinear fit
Format: biochemical, Mus musculus
Settings: HEPES/KOH pH 7.5, MgCl2, 37°C
Source text: C18-HPLC of NAD formed, nonlinear fit on Wld^S

Row | SMILES | Km (co-substrate ATP, NMN 5–100 µM, read-out: NMN / K m) | Km (read-out: ATP / K m, co-substrate NMN, ATP 25–175 µM)
1 | NC(=O)c1ccc[n+]([C@@H]2O[C@H](COP(=O)(O)O)[C@@H](O)[C@H]2O)c1 [NMN] | 32.2 ± 1.2 µM | 
2 | Nc1ncnc2c1ncn2[C@@H]1O[C@H](COP(=O)(O)OP(=O)(O)OP(=O)(O)O)[C@@H](O)[C@H]1O [ATP] |  | 29.6 ± 1.8 µM
